Broadly, the pIC50 is the IC50 on a negative log10 scale, so that one unit is a factor of ten. Usually inhibition stands for the percentage by which the read-out fell short of the control. The low end stands for little suppression, the high end for strong suppression.

Here are results for 1 molecule from patent US9000023B2, “Disubstituted phthalazine hedgehog pathway antagonists” (Eli Lilly and Company, priority 2009, dated 2015).

pIC50: −log10 of the molar value. Structures can show the parent of a compound that is named as a salt.

For one data set, the system named is Gli1 in Daoy cells. The experiment in a line: Functional assay for measuring the inhibition of Gli1 in Daoy cells (bDNA assay). Conditions: Homo sapiens; Daoy cells stimulated with Shh conditioned media, 24 hours with compound, Gli1 transcript by bDNA luminescence. It counts as cell-based. As for the experimental part:
All ligands, solvents, and reagents employed in the following assay are readily available from commercial sources or can be readily prepared by one skilled in the art. Biological activity is determined using a functional assay in Daoy neuronal cancer cells and measures levels of Gli1 ribonucleic acid via a bDNA (branched deoxyribonucleic acid) assay system (Panomics, Inc., Fremont, Calif.). Gli was originally discovered in a Glioblastoma cell line and encodes a zinc finger protein that is activated by Shh signaling. The maximum response is obtained by inducing Gli1 transcription in the Daoy cells with conditioned medium (human embryonic kidney, HEK-293 cells stably expressing recombinant Shh) for 24 hours and then measuring the amount of stimulated Gli1 transcript. […] The bDNA assay system utilizes the technology of branched-chain DNA to allow amplification of a target ribonucleic acid (transcript). […] The addition of a chemilumigenic substrate during the amplification step allows for detection using luminescence. […] The cells are removed from the T225-flasks using trypsin ethylenediaminetetraacetic acid (EDTA), centrifuged, resuspended in media, and then counted. […] The signal is quantified by reading the plates on a Perkin Elmer Envision reader detecting luminescence. […]

A further data set addresses CYP3A4 (Homo sapiens, UniProt P08684). The experiment in a line: CYP3A4 Inhibition Assay (human liver microsomes, midazolam substrate). The following applies: pH 7.4, probe midazolam (5 μM; formation of 1-OH-midazolam).

CYP3A4, sequence (P08684 whole entry): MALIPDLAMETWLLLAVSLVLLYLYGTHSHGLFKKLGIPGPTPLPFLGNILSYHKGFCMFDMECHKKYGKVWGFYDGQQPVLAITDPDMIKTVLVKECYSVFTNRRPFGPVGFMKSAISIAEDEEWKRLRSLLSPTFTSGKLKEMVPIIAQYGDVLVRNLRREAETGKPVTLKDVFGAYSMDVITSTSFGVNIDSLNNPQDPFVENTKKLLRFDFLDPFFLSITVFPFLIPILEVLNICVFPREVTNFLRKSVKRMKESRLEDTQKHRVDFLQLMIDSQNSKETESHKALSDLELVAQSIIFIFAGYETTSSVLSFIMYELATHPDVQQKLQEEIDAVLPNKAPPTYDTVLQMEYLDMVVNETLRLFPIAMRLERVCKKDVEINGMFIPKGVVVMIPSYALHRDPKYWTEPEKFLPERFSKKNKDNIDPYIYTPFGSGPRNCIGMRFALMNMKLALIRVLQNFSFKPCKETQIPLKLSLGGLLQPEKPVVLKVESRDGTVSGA

As to `CN(C(=O)c1ccc(F)cc1C(F)(F)F)C1CCN(c2nnc(-c3ccnn3C)c3ccccc23)CC1` [Example 1a, 4-Fluoro-N-methyl-N-(1-(4-(1-methyl-1H-pyrazol-5-yl)phthalazin-1-yl)piperidin-4-yl)-2-(trifluoromethyl)benzamide hydrochloride], in the data set with Gli1 in Daoy cells, the pIC50 was about 8.62. The molecule further yielded an inhibition at 3 min, 10 μM against CYP3A4 of 13.5%.
